Experimental data published in patent US10363239B2, “Method for inhibiting growth of cancer cells” (Pain Therapeutics, Inc., priority 2013, dated 2019).
Like-named read-outs stand apart in the source and are kept apart here.

Tests used:
mu opiate receptor (MOR) = test: MOR agonist activity using [35S]GTPγS binding assay in striatal membranes; type: biochemical; conditions: for MOR agonist activity ([35S]GTPγS binding), FLNA-Binding Compound as Agonist 1 μM + BFNA: 1 μM compound + 1 μM β-funaltrexamine
Method in brief: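 Striatal membranes (200 μg) were preincubated 5 min at 30 °C in HEPES pH 7.5 with 100 mM NaCl, 1 mM MgCl2 and 0.5 nM [35S]GTPγS, then 5 min more with 0.1–10 μM compound. Gαo was immunoprecipitated and bound radioactivity counted by scintillation.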

[1] = molecular target: FLNA pentapeptide of SEQ ID NO: 1 (Bn-VAKGL) (Homo sapiens, UniProt P21333); test: FITC-NLX-based FLNA screening assay (inhibition of FITC-naloxone binding to Bn-VAKGL on streptavidin plates); conditions: 10 nM FITC-NLX
[2] = Series C-1, 0.1 μM compound, relative to DAMGO
[3] = Series C-1, 0.1 μM compound, [35S]GTPγS binding to Gαo, striatal membranes
[4] = Series C-1, 1 μM compound + 1 μM β-FNA
[5] = Series C-1, 1 μM compound + β-FNA, relative to DAMGO + BFNA
[6] = Series C-1, 1 μM compound, relative to DAMGO
[7] = Series C-1, 1 μM compound, [35S]GTPγS binding to Gαo, striatal membranes
[8] = FLNA-binding compound 0.01 μM, read-out: Percent Binding Inhibition
[9] = FLNA-binding compound 0.1 μM, read-out: Percent Binding Inhibition
[10] = FLNA-binding compound 1 μM, read-out: Percent Binding Inhibition
[11] = read-out: Percent Binding Inhibition, FLNA-binding compound 0.01 μM
[12] = read-out: Percent Binding Inhibition, FLNA-binding compound 0.1 μM
[13] = read-out: Percent Binding Inhibition, FLNA-binding compound 1 μM
[14] = Series B, 0.1 μM compound, relative to DAMGO
[15] = Series B, 0.1 μM compound, [35S]GTPγS binding to Gαo, striatal membranes
[16] = Series B, 1 μM compound + 1 μM β-FNA
[17] = Series B, 1 μM compound + β-FNA, relative to DAMGO + BFNA
[18] = Series B, 1 μM compound, relative to DAMGO
[19] = Series B, 1 μM compound, [35S]GTPγS binding to Gαo, striatal membranes
[20] = 0.1 μM compound relative to DAMGO
[21] = 1 μM compound + BFNA relative to DAMGO + BFNA
[22] = 1 μM compound relative to DAMGO

COc1ccc(C(=O)N2CCC3(CC2)OCCN3S(=O)(=O)c2ccc(OC)cc2)cc1 [Compound C0018]
% DAMGO (0.1 μM) (mu opiate receptor (MOR); [2]): 110.7% | Concentration of FLNA-Binding Compound as Agonist 0.1 μM (mu opiate receptor (MOR); [3]): 195.5% | Concentration of FLNA-Binding Compound as Agonist 1 μM + BFNA (mu opiate receptor (MOR); [4]): 106.5% | % DAMGO + BFNA (mu opiate receptor (MOR); [5]): 162.1% | % DAMGO (1 μM) (mu opiate receptor (MOR); [6]): 95.5% | Concentration of FLNA-Binding Compound as Agonist 1 μM (mu opiate receptor (MOR); [7]): 247.7% | inhibition at 0.01 µM [1, 8]: 42.3% | inhibition at 0.1 µM [1, 9]: 45.9% | inhibition at 1 µM [1, 10]: 53.4%

CS(=O)(=O)c1ccc(S(=O)(=O)N2CCOC23CCNCC3)cc1 [Compound C0116M]
% DAMGO (0.1 μM) (mu opiate receptor (MOR); Series C-2, 0.1 μM compound, relative to DAMGO): 136.6% | MOR agonist activity, percent [35S]GTPγS binding at the stated compound concentration (mu opiate receptor (MOR); Series C-2, 0.1 μM compound, [35S]GTPγS binding to Gαo, striatal membranes): 258.4% | MOR agonist activity, percent [35S]GTPγS binding at the stated compound concentration (mu opiate receptor (MOR); Series C-2, 1 μM compound + 1 μM β-FNA): 152.0% | % DAMGO + BFNA (mu opiate receptor (MOR); Series C-2, 1 μM compound + β-FNA, relative to DAMGO + BFNA): 313.4% | % DAMGO (1 μM) (mu opiate receptor (MOR); Series C-2, 1 μM compound, relative to DAMGO): 122.0% | MOR agonist activity, percent [35S]GTPγS binding at the stated compound concentration (mu opiate receptor (MOR); Series C-2, 1 μM compound, [35S]GTPγS binding to Gαo, striatal membranes): 302.8% | inhibition at 0.01 µM [1, 11]: 53.9% | inhibition at 0.1 µM [1, 12]: 60% | inhibition at 1 µM [1, 13]: 62.9%

COc1ccccc1CCC(=O)CC1c2c(cc3c(c2OC)OCO3)CC[N+]1(C)C (stereo not drawn) [Compound B0045]
% DAMGO (0.1 μM) (mu opiate receptor (MOR); [14]): 82.6% | MOR agonist activity, percent [35S]GTPγS binding at the stated compound concentration (mu opiate receptor (MOR); [15]): 129.3% | MOR agonist activity, percent [35S]GTPγS binding at the stated compound concentration (mu opiate receptor (MOR); [16]): 83.8% | % DAMGO + BFNA (mu opiate receptor (MOR); [17]): 257.1% | % DAMGO (1 μM) (mu opiate receptor (MOR); [18]): 83.4% | MOR agonist activity, percent [35S]GTPγS binding at the stated compound concentration (mu opiate receptor (MOR); [19]): 193.1% | inhibition at 0.01 µM [1, 11]: 63.2% | inhibition at 0.1 µM [1, 12]: 68.2% | inhibition at 1 µM [1, 13]: 73.9%

CN(C)c1cccc(OCC(O)CN2CCc3ccccc3C2)c1 (stereo not drawn) [Compound A0050]
MOR agonist activity ([35S]GTPγS binding), FLNA-Binding Compound as Agonist 0.1 μM (mu opiate receptor (MOR); 0.1 μM compound): 151.0% | % DAMGO (0.1 μM) (mu opiate receptor (MOR); [20]): 77.0% | MOR agonist activity ([35S]GTPγS binding), FLNA-Binding Compound as Agonist 1 μM (mu opiate receptor (MOR); 1 μM compound): 189.3% | MOR agonist activity ([35S]GTPγS binding), FLNA-Binding Compound as Agonist 1 μM + BFNA (mu opiate receptor (MOR)): 81.0% | % DAMGO + BFNA (mu opiate receptor (MOR); [21]): 109.6% | % DAMGO (1 μM) (mu opiate receptor (MOR); [22]): 68.6% | inhibition at 0.01 µM [1, 8]: 42.9% | inhibition at 0.1 µM [1, 9]: 49.8% | inhibition at 1 µM [1, 10]: 52.1%

O=S(=O)(c1cccc(OC(F)(F)F)c1)N1CCC2(CC1)OCCN2S(=O)(=O)c1cccc(OC(F)(F)F)c1 [Compound C0005]
% DAMGO (0.1 μM) (mu opiate receptor (MOR); [2]): 105.4% | Concentration of FLNA-Binding Compound as Agonist 0.1 μM (mu opiate receptor (MOR); [3]): 180.4% | Concentration of FLNA-Binding Compound as Agonist 1 μM + BFNA (mu opiate receptor (MOR); [4]): 166.4% | % DAMGO + BFNA (mu opiate receptor (MOR); [5]): 319.4% | % DAMGO (1 μM) (mu opiate receptor (MOR); [6]): 85.1% | Concentration of FLNA-Binding Compound as Agonist 1 μM (mu opiate receptor (MOR); [7]): 227.2% | inhibition at 0.01 µM [1, 11]: 35.2% | inhibition at 0.1 µM [1, 12]: 44.5% | inhibition at 1 µM [1, 13]: 51.5%

CC1CCC(C(C)C)C(OCC(O)Cn2ccc3ccccc32)C1 (stereo not drawn) [Compound A0078]
MOR agonist activity ([35S]GTPγS binding), FLNA-Binding Compound as Agonist 0.1 μM (mu opiate receptor (MOR); 0.1 μM compound): 250.5% | % DAMGO (0.1 μM) (mu opiate receptor (MOR); [20]): 124.9% | MOR agonist activity ([35S]GTPγS binding), FLNA-Binding Compound as Agonist 1 μM (mu opiate receptor (MOR); 1 μM compound): 289.9% | MOR agonist activity ([35S]GTPγS binding), FLNA-Binding Compound as Agonist 1 μM + BFNA (mu opiate receptor (MOR)): 147.8% | % DAMGO + BFNA (mu opiate receptor (MOR); [21]): 274.2% | % DAMGO (1 μM) (mu opiate receptor (MOR); [22]): 92.3% | inhibition at 0.01 µM [1, 11]: 50.1% | inhibition at 0.1 µM [1, 12]: 55.8% | inhibition at 1 µM [1, 13]: 57.6%

COc1c2c(cc3c1C(CC(=O)Cc1ccccc1C)N(C)CC3)OCO2 (stereo not drawn) [Compound B0053]
% DAMGO (0.1 μM) (mu opiate receptor (MOR); [14]): 94.8% | MOR agonist activity, percent [35S]GTPγS binding at the stated compound concentration (mu opiate receptor (MOR); [15]): 160.2% | MOR agonist activity, percent [35S]GTPγS binding at the stated compound concentration (mu opiate receptor (MOR); [16]): 134.3% | % DAMGO + BFNA (mu opiate receptor (MOR); [17]): 809.0% | % DAMGO (1 μM) (mu opiate receptor (MOR); [18]): 137.0% | MOR agonist activity, percent [35S]GTPγS binding at the stated compound concentration (mu opiate receptor (MOR); [19]): 299.8% | inhibition at 0.01 µM [1, 11]: 33.1% | inhibition at 0.1 µM [1, 12]: 37.3% | inhibition at 1 µM [1, 13]: 47.6%

COc1ccc(S(=O)(=O)N2CCCC3(C2)OCCN3S(=O)(=O)c2ccc(OC)cc2)cc1 (stereo not drawn) [Compound C0145M]
% DAMGO (0.1 μM) (mu opiate receptor (MOR); [2]): 112.2% | Concentration of FLNA-Binding Compound as Agonist 0.1 μM (mu opiate receptor (MOR); [3]): 193.0% | Concentration of FLNA-Binding Compound as Agonist 1 μM + BFNA (mu opiate receptor (MOR); [4]): 87.0% | % DAMGO + BFNA (mu opiate receptor (MOR); [5]): 95.3% | % DAMGO (1 μM) (mu opiate receptor (MOR); [6]): 88.7% | Concentration of FLNA-Binding Compound as Agonist 1 μM (mu opiate receptor (MOR); [7]): 289.2% | inhibition at 0.01 µM [1, 8]: 45.1% | inhibition at 0.1 µM [1, 9]: 53.7% | inhibition at 1 µM [1, 10]: 58.3%
